{
  "source": "patent EP0603240B1",
  "about": "“SAFENING HERBICIDAL PYRAZOLYLSULFONYLUREAS” (priority 1991, dated 1993)",
  "key": {"corn [1]": {"tested_on": "corn", "assay": "Example 12, Procedure II: Herbicide No. 1 + acetochlor (No. 6) with thirteen antidotes", "type": "in vivo", "details": "Herbicide No. 1:Herbicide 6:Antidote 0.56:2.24:2.24 kg/ha", "description": "(§1) Containers were filled and compacted with a fumigated silt loam top soil to a depth of about 1.3 cm from the top of the container. A first container was designated as an untreated control, a second container was designated as a herbicide control, and a third container was designated as a herbicide + antidote test container. Each of the containers was seeded with a crop species. A measured amount of herbicide dispersed or dissolved in acetone was applied to a measured quantity of soil. To this same quantity of soil treated with herbicide, there was added a measured amount of antidote dispersed or dissolved in acetone. The quantity of soil treated with the herbicide and antidote was thoroughly mixed to incorporate the herbicide and antidote in the soil uniformly. The seed bed in the third container of soil was covered with the soil treated with the herbicide and antidote and the container was leveled. For each test series, the seed beds of the first and second containers were likewise covered by soil layers. the cover layer of the first container was not treated with herbicide or antidote.\n(§2) The containers were then placed on a bench in a greenhouse and sub-irrigated as required for the duration of the test. […] Plant response is measured in terms of percent injury. Antidote efficacy is indicated as the difference in plant injury by the herbicide(s) without the antidote and with the antidote.\n(§3) This procedure is the same as Procedure I, but modified in the manner that after incorporation of the chemicals (herbicide and antidote) the containers with the covered seedbed were treated with an initial overhead irrigation equivalent to 0.6 cm rainfall, then subsequently sub-irrigated as required on greenhouse benches.\nThis example was designed to investigate the efficacy of thirteen different antidotes from different classes of chemistry as safeners against compositions of Herbicide No. 1 and acetochlor (Herbicide No. 6) as co-herbicide. Acetochlor is the active ingredient in the commercial herbicides GUARDIAN® and WENNER®.\nThe test procedure used in this example was Procedure II described above."}, "corn [2]": {"tested_on": "corn", "assay": "Example 25, greenhouse preemergence test: Antidote Nos. 1 and 2 against Herbicide Nos. 1-3", "type": "in vivo, Corn (Pioneer 3424 variety)", "details": "preemergence; Herbicide Nos. 1-3 at the two highest rates", "description": "The chemicals were tested in both preemergence and post-emergence modes of application. The herbicides were prepared and applied as wettable powders; dichlormid was applied as an emulsifiable concentrate, while the naphthalic anhydride was applied as a coating on the corn seed prior to planting.\n(§4) Test data from the preemergence tests are shown in Table 25A and from the post-emergence tests in Table 25B. In the tables, the concentration of chemicals is shown in terms of active ingredient in grams per hectare (G/ha); concentrations of the naphthalic anhydride were not measured per se, but were present as in conventional, normally-coated applications. Corn injury is shown in terms of percent inhibition of growth."}, "corn [3]": {"tested_on": "corn", "assay": "Example 25, greenhouse post-emergence test: Antidote Nos. 1 and 2 against Herbicide Nos. 1-3", "type": "in vivo, Corn (Pioneer 3424 variety)", "details": "Herbicide Nos. 1-3", "description": "Additional tests were conducted in the greenhouse in order to evaluate the antidotal efficacy of Antidote Nos. 1 (dichlormid) and 2 (naphthalic anhydride) in protecting corn from the herbicidal activity of Herbicide Nos. 1-3 (i.e., NC-319, NC-319 EX and NC-311, respectively). The chemicals were tested in both preemergence and post-emergence modes of application. The herbicides were prepared and applied as wettable powders; dichlormid was applied as an emulsifiable concentrate, while the naphthalic anhydride was applied as a coating on the corn seed prior to planting.\nCorn seeds (Pioneer 3424 variety) were planted in alluvial soil containing compost and fertilizer in pots 12 cm. in diameter. Test chemicals were applied with a spray gun at the spray volume rate of 11.2 l/ha at the time of seeding in the preemergence tests and seven (7) days after seeding in the post-emergence tests, when the check (control) plants were at the 16-20 cm., 3.0-3.2 leaf stage, and naphthalic anhydride coated seed grown plants were at the 14-16 cm., 2.8-3.0 leaf stage.\nas §4"}, "corn [4]": {"tested_on": "corn", "assay": "Example 11, Procedure II: Herbicide No. 1 + metazachlor (No. 14) with antidotes", "type": "in vivo", "description": "as §1, §2, §3\n(§5) In this example, yet another α-chloroacetanilide co-herbicide, metazachlor (Herbicide No. 14) was combined with Herbicide No. 1 for investigation of the effect of various safeners on that composition. Metazachlor is the active ingredient in the commercial herbicide BUTISAN® S, used here as a 500 g/L formulation."}, "[5]": {"tested_on": "barnyardgrass (Echinochloa crusgalli)", "assay": "Example 11, Procedure II: Herbicide No. 1 + metazachlor (No. 14) with antidotes", "type": "in vivo", "details": "Herbicide No.14 3.36 kg/ha alone, no antidote", "description": "as §1, §2, §3\n(§6) In the series of greenhouse tests described below, for routine screening purposes the herbicide/antidote compositions were tested in crop/weed combinations involving corn as the crop and either or both of the weeds barnyardgrass (Echinochloa crusgalli), a monocotyledonous weed, and velvetleaf (Abutilon theophrasti), a dicotyledonous weed. In the tables below, these weeds are indicated by the symbols \"BYG\" and \"VL\", respectively.\nas §5"}, "[6]": {"tested_on": "velvetleaf (Abutilon theophrasti)", "assay": "Example 11, Procedure II: Herbicide No. 1 + metazachlor (No. 14) with antidotes", "type": "in vivo", "details": "Herbicide No.14 3.36 kg/ha alone, no antidote", "description": "as §1, §2, §3, §6, §5"}, "corn [7]": {"tested_on": "corn", "assay": "Example 15, Procedure II: Herbicide No. 1 + butylate (No. 10) with antidotes", "type": "in vivo", "description": "as §1, §2, §3\nThis example describes experiments designed to investigate the antidotal efficacy of a plurality of antidotes against the herbicidal action of a combination of Herbicide No. 1 and butylate in corn and the prevalent weeds barnyardgrass and velvetleaf. The antidotes used in these experiments were Nos. 1-10, 12, 13 and 15.\nThe test procedure used in these experiments was that of Procedure II described above. The antidotes were applied to a soil cover layer by pipet after spraying the herbicides onto the soil, followed by incorporation and overhead irrigation."}, "corn [8]": {"tested_on": "corn", "assay": "Example 13, Procedure II: Herbicide No. 1 + acetochlor (No. 6) with dichloroacetamide antidotes", "type": "in vivo", "details": "Herbicide Nos. 1 and 6, Table 13", "description": "as §1, §2, §3\nIn this example a plurality of dichloroacetamide antidotes were tested for their safening efficacy against a herbicidal composition comprising Herbicide No. 1 and a co-herbicide, acetochlor (Herbicide No. 6) in corn in the presence of velvetleaf. The procedure used in this example was Procedure II above."}, "corn [9]": {"tested_on": "corn", "assay": "Example 10, Procedure II: Herbicide No. 1 + propachlor (No. 5) with antidotes", "type": "in vivo", "details": "Herbicide No.5 4.48 kg/ha alone, no antidote", "description": "as §1, §2, §3\n(§7) In this test, the safening effect of various antidotes on the herbicidal combination of Herbicide No. 1 and another α-chloroacetanilide co-herbicide, propachlor, (Herbicide No. 5) was investigated. Propachlor is the active ingredient in the commercial herbicide RAMROD®. Procedure II was also used in this test as in the preceding example."}, "[10]": {"tested_on": "barnyardgrass (Echinochloa crusgalli)", "assay": "Example 10, Procedure II: Herbicide No. 1 + propachlor (No. 5) with antidotes", "type": "in vivo", "details": "Herbicide No.5 4.48 kg/ha alone, no antidote", "description": "as §1, §2, §3, §6, §7"}, "[11]": {"tested_on": "velvetleaf (Abutilon theophrasti)", "assay": "Example 10, Procedure II: Herbicide No. 1 + propachlor (No. 5) with antidotes", "type": "in vivo", "details": "Herbicide No.5 4.48 kg/ha alone, no antidote", "description": "as §1, §2, §3, §6, §7"}, "corn [12]": {"tested_on": "corn", "assay": "Example 7, Procedure II: Herbicide No. 1 + metolachlor (No. 12) with antidotes", "type": "in vivo", "details": "Herbicide No.1 0.56 + No.12 3.36 kg/ha + antidote 2.24 kg/ha", "description": "as §1, §2, §3\nIn this example, Procedure II described above was followed. The data from the tests in this example is shown in Table 6 and represents averages of duplicate replications.\nThe tests in this example followed the same procedure and antidotes used in Example 6. However, Herbicide No. 12 (metolachlor) was used as the co-herbicide with Herbicide No. 1."}, "corn [13]": {"tested_on": "corn", "assay": "Example 18, Procedure II: Herbicide No. 1 + ERADICANE (EPTC + R-25788) with auxiliary antidotes", "type": "in vivo", "details": "Herbicide No. 1 + ERADICANE 8.96 kg/ha, PPI, Table 18", "description": "as §1, §2, §3\n(§8) In the test reported in this example, the herbicidal composition was similar to that used in Example 16 in that Herbicide No. 1 was combined with EPTC (Herbicide No. 4) as a co-herbicide and the antidotes included Nos. 1, 2, 7, 13 and 15. However, in this test the EPTC was introduced as a formulation of ERADICANE (EPTC + the antidote R-25788, i.e., Antidote No. 1) at an application rate of 8.96 kg/ha. Thus, in this test two antidotes were present, viz. R-25788 and one of the auxilliary antidotes, No. 2, 13 and 15.\nTest procedures were those of Procedure II above."}, "corn [14]": {"tested_on": "corn", "assay": "Example 19, Procedure II: Herbicide No. 1 + ERADICANE EXTRA with added antidotes", "type": "in vivo", "details": "Herbicide No. 1 + ERADICANE EXTRA + added antidote, highest rates of antidotes and herbicides", "description": "as §1, §2, §3, §8\nThe test reported in this example was performed in the same manner and with the same antidotes used in Example 18, the only difference being the substitution of the commercial herbicidal product ERADICANE® EXTRA for ERADICANE®. ERADICANE EXTRA is a formulation containing both an antidote, i.e., R-29148 (Antidote No. 5 herein), and an extender, dietholate."}},
  "data": [
    {"smiles": "O=C1OC(=O)c2cccc3cccc1c23", "note": "[Antidote No. 2, 1H, 3H-Naphtho [1,8-cd]pyran-1,3-dione]", "values": [
      {"measurement": "safening of corn, assessment in words", "setting": "corn [1]", "value": "performed at commercial levels"},
      {"measurement": "safening of corn, assessment in words", "setting": "corn [2]", "value": "significantly reduced corn injury"},
      {"measurement": "safening of corn, assessment in words", "setting": "corn [3]", "value": "significantly reduced corn injury by Herbicides No. 1 and 3 at the highest rates of application, but not at lower rates"}
    ]},
    {"smiles": "Cc1cccc(C)c1N(Cn1cccn1)C(=O)CCl", "note": "[Herbicide No.14]", "values": [
      {"measurement": "% Injury Corn", "setting": "corn [4]; Herbicide No.14 3.36 kg/ha alone, no antidote", "value": 85, "unit": "%"},
      {"measurement": "% Injury BYG", "setting": "[5]", "value": 100, "unit": "%"},
      {"measurement": "% Injury VL", "setting": "[6]", "value": 65, "unit": "%"}
    ]},
    {"smiles": "CCSC(=O)N(CC(C)C)CC(C)C", "note": "[Herbicide No.10]", "values": [
      {"measurement": "% Injury Corn", "setting": "corn [7]; in vivo", "value": 5, "unit": "%"}
    ]},
    {"smiles": "CC1CN(C(=O)C(Cl)Cl)C(C)(C)O1", "note": "(centres unmarked) [Antidote No. 5, Oxazolidine, 3-(dichloroacetyl)-2,2,5-trimethyl-]", "values": [
      {"measurement": "safening of corn, assessment in words", "setting": "corn [8]", "value": "Commercial-level safening was exhibited at all rates and combinations"}
    ]},
    {"smiles": "CC1(C)CN2C(=O)CCC2(C)N(C(=O)C(Cl)Cl)C1", "note": "(centres unmarked) [Antidote No. 14, 5-Dichloroacetyl-3,3,6-trimethyl-9-oxo-1,5-diazabicyclo[4.3.0]nonane]", "values": [
      {"measurement": "safening of corn, assessment in words", "setting": "corn [8]", "value": "Commercial-level safening was exhibited at all rates and combinations"}
    ]},
    {"smiles": "CC(C)N(C(=O)CCl)c1ccccc1", "note": "[Herbicide No.5]", "values": [
      {"measurement": "% Injury Corn", "setting": "corn [9]", "value": 0, "unit": "%"},
      {"measurement": "% Injury BYG", "setting": "[10]", "value": 100, "unit": "%"},
      {"measurement": "% Injury VL", "setting": "[11]", "value": 15, "unit": "%"}
    ]},
    {"smiles": "O=C(C(Cl)Cl)N1CCOC12CCCCC2", "note": "[Antidote No. 7, 1-Oxa-4-azaspiro[4,5]decane, 4-(dichloroacetyl)-]", "values": [
      {"measurement": "% Injury Corn", "setting": "corn [12]", "value": 20, "unit": "%"},
      {"measurement": "safening of corn, assessment in words", "setting": "corn [4]; Herbicides 1 and 14, Table 11", "value": "outperformed the antidotes (2 and 13) of other chemistries"},
      {"measurement": "safening of corn, assessment in words", "setting": "corn [7]; Herbicide No. 1 1.12 and 0.56 kg/ha + Herbicide No. 10 6.72 kg/ha PPI, Table 15", "value": "complete protection against corn injury"},
      {"measurement": "corn injury, assessment in words", "setting": "corn [13]", "value": "slightly lower"},
      {"measurement": "corn injury", "setting": "corn [14]", "value": 25, "unit": "%"}
    ]}
  ]
}
